± gives the expanded uncertainty stated by the source.
Tests used:
[1] = Liquid; for speed of sound: 100 kPa, Frequency=3 MHz, Sing-around technique in a fixed-path interferometer; for mass density: 101.3 kPa, Vibrating tube method
[2] = refractive index (Na D-line) (dimensionless); conditions: 100 kPa, Liquid, Standard Abbe refractometry
[3] = xn = mol fraction of the nth substance listed; conditions: Liquid, x1 = 1; for speed of sound: 100 kPa, Frequency=3 MHz, Sing-around technique in a fixed-path interferometer; for mass density: 101.3 kPa, Vibrating tube method
[4] = refractive index (Na D-line) (dimensionless); xn = mol fraction of the nth substance listed; conditions: 100 kPa, Liquid, Standard Abbe refractometry, x1 = 1

CCOS(=O)(=O)[O-].CCn1cc[n+](C)c1 [1-ethyl-3-methylimidazolium ethyl sulfate]
Conditions | mass density, [1] [kg/m3] | refractive index, [2] | speed of sound, [1] [m/s]
298.15 K | 1236.38 ± 2 | 1.47907 ± 0.002 | 1680.8 ± 1.6
308.15 K | 1229.49 ± 2 | 1.47645 ± 0.002 | 1656.4 ± 1.6
318.15 K | 1222.78 ± 2 | 1.47374 ± 0.002 | 1632.4 ± 1.6
328.15 K | 1216.16 ± 2 | 1.47112 ± 0.002 | 1608.9 ± 1.6

CCOS(=O)(=O)[O-].CCn1cc[n+](C)c1 [1-ethyl-3-methylimidazolium ethyl sulfate] + CCCOCCO
Conditions | mass density, [3] [kg/m3] | refractive index, [4] | speed of sound, [3] [m/s]
298.15 K | 1236.38 ± 2 | 1.47907 ± 0.002 | 1680.8 ± 1.6
308.15 K | 1229.49 ± 2 | 1.47645 ± 0.002 | 1656.4 ± 1.6
318.15 K | 1222.78 ± 2 | 1.47374 ± 0.002 | 1632.4 ± 1.6
328.15 K | 1216.16 ± 2 | 1.47112 ± 0.002 | 1608.9 ± 1.6

CCCOCCO [2-propoxyethanol]
Conditions | mass density, [1] [kg/m3] | refractive index, [2] | speed of sound, [1] [m/s]
298.15 K | 908.31 ± 2 | 1.41255 ± 0.002 | 1299.9 ± 1.5
308.15 K | 899.5 ± 2 | 1.40814 ± 0.002 | 1265 ± 1.5
318.15 K | 890.56 ± 2 | 1.40355 ± 0.002 | 1230.1 ± 1.5
328.15 K | 881.49 ± 2 | 1.39908 ± 0.002 | 1195.8 ± 1.5
